Key:
[1] = biological target: T1, CYP3A4 (Homo sapiens, UniProt P08684); test: In vitro CYP inhibition, marker substrate testosterone; assay type: in vitro ADME
T1 construct: host or cells: human liver microsomes (one value) / recombinant CYP enzyme (other value)
Method: To assess metabolizing enzyme-mediated drug interactions, P8-D6 was incubated with human liver (HLM) or recombinant CYP enzymes and the respective marker substrate according to the FDA (with the exception of using amitriptyline instead of S-mephenytoin). −
However, as some conversions were catalyzed by several enzymes, the conversion rates in HLM increased (e.g., bupropion and diclofenac).
To examine a possible in vitro CYP inhibition, the following CYP enzymes and marker substrates were investigated according to the FDA: , phenacetin (CYP1A2), bupropion (CYP2B6), amodiaquine (CYP2C8), diclofenac (CYP2C9), amitriptyline (CYP2C19), dextromethorphan (CYP2D6), testosterone (CYP3A4), and nifedipine (CYP3A4). Incubation was performed in a 0.2 mL reaction mix consisting of PBS buffer (pH 7.4), 1 mM marker substrate, 1 mM NADPH, and either 0.5 mg/mL recombinant CYP enzyme or human liver microsomes. P8-D6 was added for a final concentration of 0.5 μM, 1 μM, 5 μM, 10 μM, 25 μM, 50 μM, 100 μM, 500 μM, 1000 μM, and (in some cases) 5000 μM. Sample preparation was performed according to in vitro biotransformation.

[2] = system: LDL; test: Binding to isolated plasma protein by ultrafiltration
Method: (§1) To examine the effect of the P8-D6 plasma protein binding on the in vivo bioavailability, human and rat plasma was spiked in vitro and incubated with P8-D6. By using ultrafiltration to separate free P8-D6 from the protein-bound fraction, a plasma protein binding of 99% (Figure A) was estimated. However, neither human α-1-microglobulin (3.06%) nor human serum albumin (0.91%) is responsible for binding. According to initial findings, γ-globulins (94.59%), human transferrin (90.43%), LDL (87.99%), human α2-HS glycoprotein (85.29%), and human fibrinogen (78.89%) lead to binding of P8-D6.
(§2) To examine the extent of plasma protein binding, 150 μL of blank samples of human plasma (1 mM) and rat plasma (1 mM), human albumin (1 mM, #A1653, Merck KGaA, Darmstadt); human α1-acid glycoprotein (1 mM; #G9885, Merck KGaA, Darmstadt); human α2-HS-glycoprotein (0.1 mM; #G0516, Merck KGaA, Darmstadt); human transferrin (0.2 mM; #T8158, Merck KGaA, Darmstadt); human fibrinogen (0.2 mM; #F3879, Merck KGaA, Darmstadt); LDL (0.2 mM; […]); and human γ-globulin (1 mM; #G4386, Merck KGaA, Darmstadt) were spiked with P8-D6 in the same final concentration as the protein and incubated in a shaking water bath at 37 °C for 120 min. Afterward, the unbound fraction of P8-D6 was separated by ultrafiltration (Vivaspin 500 10 000 MWCO filter). The sample preparation was performed according to plasma samples. Blank plasma samples served as the control samples.

[3] = biological target: T2, human (Homo sapiens, UniProt P02763); test: as above
T2 construct: purchased Merck KGaA, Darmstadt G9885
T2 sequence (P02763 19-201): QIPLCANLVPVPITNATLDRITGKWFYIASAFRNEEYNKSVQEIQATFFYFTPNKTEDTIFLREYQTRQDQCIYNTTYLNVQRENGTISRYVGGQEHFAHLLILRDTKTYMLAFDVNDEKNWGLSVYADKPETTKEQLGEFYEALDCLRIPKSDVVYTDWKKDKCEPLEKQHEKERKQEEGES
Method: as §1, §2

[4] = biological target: T3, human fibrinogen (Homo sapiens, UniProt P02671+P02675+P02679); test: as above
T3 construct: purchased Merck KGaA, Darmstadt F3879
T3 sequence (P02671 20-629 limits assumed): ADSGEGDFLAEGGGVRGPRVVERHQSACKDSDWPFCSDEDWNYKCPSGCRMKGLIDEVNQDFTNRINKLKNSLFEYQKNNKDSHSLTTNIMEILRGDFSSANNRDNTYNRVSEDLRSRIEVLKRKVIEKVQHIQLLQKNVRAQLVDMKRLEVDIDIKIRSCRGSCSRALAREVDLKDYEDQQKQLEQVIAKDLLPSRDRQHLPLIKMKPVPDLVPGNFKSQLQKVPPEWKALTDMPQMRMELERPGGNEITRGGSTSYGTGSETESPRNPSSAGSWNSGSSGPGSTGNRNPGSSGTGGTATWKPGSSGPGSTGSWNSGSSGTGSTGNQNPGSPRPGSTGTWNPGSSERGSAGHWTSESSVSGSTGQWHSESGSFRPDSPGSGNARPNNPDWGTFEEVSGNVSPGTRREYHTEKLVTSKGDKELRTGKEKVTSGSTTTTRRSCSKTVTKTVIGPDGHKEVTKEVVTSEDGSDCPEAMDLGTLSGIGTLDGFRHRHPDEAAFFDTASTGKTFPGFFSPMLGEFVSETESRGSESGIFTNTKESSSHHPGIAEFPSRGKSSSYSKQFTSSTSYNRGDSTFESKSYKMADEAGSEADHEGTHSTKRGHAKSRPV
T3 sequence (P02675 31-491): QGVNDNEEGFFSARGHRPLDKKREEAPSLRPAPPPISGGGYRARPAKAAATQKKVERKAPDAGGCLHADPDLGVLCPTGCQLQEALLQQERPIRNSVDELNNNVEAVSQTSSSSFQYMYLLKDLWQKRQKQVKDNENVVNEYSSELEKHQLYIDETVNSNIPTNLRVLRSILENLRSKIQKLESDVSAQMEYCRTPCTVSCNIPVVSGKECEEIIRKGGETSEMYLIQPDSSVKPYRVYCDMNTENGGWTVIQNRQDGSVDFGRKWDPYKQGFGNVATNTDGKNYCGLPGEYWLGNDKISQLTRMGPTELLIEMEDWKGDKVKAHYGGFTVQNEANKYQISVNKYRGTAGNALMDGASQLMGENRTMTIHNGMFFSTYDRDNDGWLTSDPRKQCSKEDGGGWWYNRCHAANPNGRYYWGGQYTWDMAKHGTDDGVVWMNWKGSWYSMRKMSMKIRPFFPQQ
T3 sequence (P02679 27-433 limits assumed): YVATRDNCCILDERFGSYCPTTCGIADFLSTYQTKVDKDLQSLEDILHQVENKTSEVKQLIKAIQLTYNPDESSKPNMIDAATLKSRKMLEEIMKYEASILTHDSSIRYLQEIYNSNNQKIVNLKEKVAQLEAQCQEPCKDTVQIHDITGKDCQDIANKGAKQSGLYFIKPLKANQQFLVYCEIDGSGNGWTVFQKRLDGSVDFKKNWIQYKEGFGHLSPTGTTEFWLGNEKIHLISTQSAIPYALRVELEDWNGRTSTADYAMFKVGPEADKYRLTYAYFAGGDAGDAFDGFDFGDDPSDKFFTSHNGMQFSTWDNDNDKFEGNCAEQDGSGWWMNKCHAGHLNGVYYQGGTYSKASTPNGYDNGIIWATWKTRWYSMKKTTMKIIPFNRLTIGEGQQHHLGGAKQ
Method: as §1, §2

[5] = biological target: T4, human serum albumin (Homo sapiens, UniProt P02768); test: as above
T4 construct: purchased Merck KGaA, Darmstadt A1653
T4 sequence (P02768 25-609): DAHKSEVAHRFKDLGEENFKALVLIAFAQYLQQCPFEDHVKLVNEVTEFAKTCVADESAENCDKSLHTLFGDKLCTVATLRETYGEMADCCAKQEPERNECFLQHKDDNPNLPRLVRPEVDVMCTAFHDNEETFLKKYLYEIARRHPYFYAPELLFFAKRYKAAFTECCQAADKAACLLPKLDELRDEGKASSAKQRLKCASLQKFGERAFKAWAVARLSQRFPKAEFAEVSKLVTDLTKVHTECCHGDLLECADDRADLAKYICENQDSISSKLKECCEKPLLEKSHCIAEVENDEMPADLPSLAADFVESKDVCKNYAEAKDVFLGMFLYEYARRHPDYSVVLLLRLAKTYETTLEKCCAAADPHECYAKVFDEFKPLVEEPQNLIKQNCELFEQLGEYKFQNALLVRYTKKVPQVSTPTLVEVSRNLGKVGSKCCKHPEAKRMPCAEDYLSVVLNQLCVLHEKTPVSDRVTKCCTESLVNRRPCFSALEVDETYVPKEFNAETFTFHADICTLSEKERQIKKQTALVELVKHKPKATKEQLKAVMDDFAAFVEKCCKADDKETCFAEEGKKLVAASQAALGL
Method: as §1, §2

[6] = biological target: T5, human transferrin (Homo sapiens, UniProt P02787); test: as above
T5 construct: purchased Merck KGaA, Darmstadt T8158
T5 sequence (P02787 20-698): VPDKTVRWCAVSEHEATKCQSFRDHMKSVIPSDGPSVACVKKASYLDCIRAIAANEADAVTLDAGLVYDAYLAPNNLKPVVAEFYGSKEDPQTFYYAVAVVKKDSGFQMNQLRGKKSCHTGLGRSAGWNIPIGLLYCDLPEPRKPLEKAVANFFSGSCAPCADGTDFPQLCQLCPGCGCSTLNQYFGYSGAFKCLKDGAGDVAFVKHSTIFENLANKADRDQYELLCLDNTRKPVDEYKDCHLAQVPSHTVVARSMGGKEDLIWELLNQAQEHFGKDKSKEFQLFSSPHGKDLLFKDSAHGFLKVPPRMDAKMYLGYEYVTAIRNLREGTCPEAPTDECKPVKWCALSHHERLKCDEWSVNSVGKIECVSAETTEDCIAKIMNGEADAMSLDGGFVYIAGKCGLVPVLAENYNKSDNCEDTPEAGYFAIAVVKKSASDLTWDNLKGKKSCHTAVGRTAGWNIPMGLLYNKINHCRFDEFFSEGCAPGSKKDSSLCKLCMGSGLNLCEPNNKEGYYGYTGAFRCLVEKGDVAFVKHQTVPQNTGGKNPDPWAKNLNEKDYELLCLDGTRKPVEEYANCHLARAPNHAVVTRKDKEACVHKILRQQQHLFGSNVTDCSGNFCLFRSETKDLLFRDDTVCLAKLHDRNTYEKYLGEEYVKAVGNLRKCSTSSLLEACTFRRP
Method: as §1, §2

[7] = biological target: T6, human α2-HS glycoprotein (Homo sapiens, UniProt P02765); test: as above
T6 construct: purchased Merck KGaA, Darmstadt G0516
T6 sequence (P02765 19-367): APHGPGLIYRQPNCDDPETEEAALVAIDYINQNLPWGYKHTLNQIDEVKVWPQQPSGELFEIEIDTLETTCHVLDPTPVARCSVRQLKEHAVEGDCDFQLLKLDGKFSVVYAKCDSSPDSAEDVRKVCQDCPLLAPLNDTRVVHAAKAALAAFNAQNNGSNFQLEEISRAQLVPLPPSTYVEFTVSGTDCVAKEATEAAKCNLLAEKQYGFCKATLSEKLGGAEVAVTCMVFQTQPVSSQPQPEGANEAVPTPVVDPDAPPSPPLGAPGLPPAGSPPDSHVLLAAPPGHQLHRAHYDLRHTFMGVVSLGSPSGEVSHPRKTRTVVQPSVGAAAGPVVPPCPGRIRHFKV
Method: as §1, §2

[8] = system: kidney tissue (γH2AX, c-PARP, OGG1); test: In vivo tolerability and immunohistochemistry of tissue damage markers; design: species or system Sprague–Dawley rats
Description: Organs were immunostained with antibodies to detect reactive oxygen species, DNA damage, and caspase levels, not showing abnormalities in the liver, lungs, spleen, kidneys, and colon (Figure E).
OGG1, a marker for oxidative DNA damage produced by reactive oxygen species, was expressed weakly in the background and cytoplasm of the negative control samples of kidney tissue. […] No specific immunohistochemical reactions could be observed for the other organs.
Tissues were fixed with 4% formaldehyde and dehydrated with an ethanol series before embedding in paraffin. Tissue sections were cut using a microtome; the tissue sections were deparaffinized and rehydrated in water. Hematoxylin and eosin (H and E) staining was carried out on a Tissue Tek Prisma Plus autostainer (SAKURA). For immunohistochemistry, sections were stained with antibodies directed against γH2AX (Cell Signaling #9718, dilution 1:200, DNA-damage), OGG1 (Proteintech #15125-1-AP, dilution 1:200, DNA-damage), and c-PARP (Abcam #ab32064, dilution 1:200, DNA-damage). […] The immunoreaction was visualized with the Bond Polymer Refine Detection Kit (DS 9800; brown labeling; Novocastra; Leica Biosystems GmbH), resulting in a brown color and counterstained with hematoxylin. The IHC stainings were carried out on the autostainer BOND RX system (Leica Biosystems GmbH). The stained tissue sections were digitalized with a NanoZoomer S60 Digital slide scanner (Hamamatsu) at a 40× magnification objective and analyzed by board-certified pathologists. The samples from three mice were analyzed.

T1 sequence (P08684 whole entry): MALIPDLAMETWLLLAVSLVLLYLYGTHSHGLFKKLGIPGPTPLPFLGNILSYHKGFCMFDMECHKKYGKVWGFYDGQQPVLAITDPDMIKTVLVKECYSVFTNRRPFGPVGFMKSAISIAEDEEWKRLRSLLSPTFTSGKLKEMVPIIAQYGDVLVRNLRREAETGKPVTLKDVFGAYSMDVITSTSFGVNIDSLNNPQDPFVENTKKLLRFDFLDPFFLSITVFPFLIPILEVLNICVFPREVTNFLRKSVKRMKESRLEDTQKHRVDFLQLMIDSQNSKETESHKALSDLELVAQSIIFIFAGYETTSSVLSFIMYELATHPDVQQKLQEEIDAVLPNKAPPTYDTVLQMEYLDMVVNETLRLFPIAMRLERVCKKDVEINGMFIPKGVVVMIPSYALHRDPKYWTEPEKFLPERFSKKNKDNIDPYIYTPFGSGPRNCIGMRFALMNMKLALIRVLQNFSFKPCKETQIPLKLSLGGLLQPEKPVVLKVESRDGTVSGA

Question: COc1cc(-c2cc3ccncc3c3nc(OCCN(C)C)c4cnccc4c23)cc(OC)c1OC [P8-D6, 6-(N,N-dimethyl-2-aminoethoxy)-11-(3,4,5-trimethoxyphenyl)-pyrido[3,4-c][1,9]-phenanthroline] was tested. Which IC50 ([1]; HLM) did it give?
Answer: The IC50 was 165 µM.

Question: What about the IC50 ([1]; recombinant CYP isoenzyme) of the same molecule?
Answer: The IC50 was 94 µM.

Question: And the “binding of P8-D6” value [2]?
Answer: Its value is 87.99%.

Question: What about the “binding of P8-D6” value [3] of the same molecule?
Answer: Its value is 3.06%.

Question: What about the “binding of P8-D6” value [4] of the same molecule?
Answer: The value was 78.89%.

Question: And the “binding of P8-D6” value [5]?
Answer: The value was 0.91%.

Question: And the “binding of P8-D6” value [6]?
Answer: The value was 90.43%.

Question: What about the “binding of P8-D6” value [7] of the same molecule?
Answer: Its value is 85.29%.

Question: What about the “OGG1 immunohistochemistry (oxidative DNA damage)” value ([8]; kidney tissue) of the same molecule?
Answer: The value was “did not significantly differ from the negative control”.

Question: What about the “γH2AX immunohistochemistry (marker for DNA damage)” value ([8]; kidney tissue) of the same molecule?
Answer: Its value is “diffuse positivity”.

Question: What about the signs of toxicity ([8]; p.o. 50 mg/kg BW and i.v. 10 mg/kg BW) of the same molecule?
Answer: The signs of toxicity was “no signs of toxicity”.

Question: And the “C-PARP immunohistochemistry (marker of apoptosis)” value ([8]; vs positive and negative control)?
Answer: The value was “no significant difference”.

Source: PMC11997890, “In Vivo and In Vitro Pharmacokinetic Studies of a Dual Topoisomerase I/II Inhibitor” (ACS Pharmacology & Translational Science, 2025)
